# Data reported in patent US20240300924A1, “PYRAZOLE DERIVATIVE COMPOUND, ADHESIVE COMPOSITION COMPRISING SAME, AND ADHESIVE FILM COMPRISING SAME” (LG CHEM, LTD., priority 2021, published 2024).
# “Also recorded” adds a separate entry of the source.
# Key:
# Format in all cases: physicochemical
# [1] = Maximum absorption wavelength of the adhesive composition (solution), UV-vis; details: adhesive composition in MEK; UV-vis apparatus (Shimazu UV-3600)
# Text: (§1) Based on 100 parts by weight a solid content except for a solvent in an adhesive composition, 95.4 parts by weight of an adhesive material (AD-701 solid content, LG Chem.), 0.29 part by weight of Compound P1, 0.1 part by weight of an isocyanate-based cross-linking agent (T39M, Soken Chemical & Engineering Co., Ltd.), 0.2 part by weight of a silane-based coupling agent (T-789J, Soken Chemical & Engineering Co., Ltd.), 0.5 part by weight of an antioxidant (Kinox-80, Hannong Chemicals Inc.), 1.5 parts by weight of an antistatic agent (FC-4400, 3M), 2 parts by weight of a hindered amine light stabilizer (Tinuvin 123, BASF SE), and 0.001 part by weight of a catalyst (dibutyltin dilaurate, Sigma-Aldrich) were added to the adhesive composition, the solvent (methyl ethyl ketone, MEK) was added thereto in an amount of 25 parts by weight based on the total parts by weight of the adhesive composition, and a release layer (PET) was coated with the adhesive composition mixed using a mixer (Shaker, SKC 6100, JEIO Tech.) to have a thickness of 22 μm to 23 μm using a knife bar coating apparatus (KP-3000, Kipae E&T Co., Ltd.), thereby preparing an adhesive film. After coating, the release layer was removed, and the adhesive film and a binder resin film (TAC: cellulose triacetate) were sequentially laminated on glass through lamination, thereby producing a sample.
# (§2) The maximum absorption wavelength λmax (nm) of each of the adhesive composition and the adhesive film was measured using a UV-vis apparatus (Shimazu UV-3600). In addition, the transmittance of the sample for light with a wavelength of 390 to 450 nm was measured by the UV-vis apparatus (Shimazu UV-3600). Under conditions of light fastness 55,600 lx*48 hours; under conditions of heat resistance 80° C. and for 500 hours; or under conditions of moisture resistance 60° C., 90% RH and for 500 hours, the sample was each exposed, and then the transmittance for light with a wavelength of 390 to 450 nm was re-measured. ΔT was calculated by dividing the value obtained by […] by the transmittance value immediately after the sample was produced, and the results under the evaluation conditions are shown in Table 1. Furthermore, the transmittance of the sample for light in a region with a wavelength of 450 nm or more was measured by the UV-vis apparatus (Shimazu UV-3600). Further, the solubility of Compound p1 to methyl ethyl ketone (MEK) was measured under conditions of 1 atm and room temperature.
# (§3) Experiments were performed under the same conditions as in Example 1, except that Compounds P3 to P10, Compound P15 and Comparative Compounds Z1 and Z2 were used instead of Compound P1, respectively, in Example 1, and the experimental results are shown in the following Table 1.
# [2] = Heat resistance of adhesive film sample (change in transmittance ΔT); details: ΔT of transmittance for light of 390 to 450 nm, 80° C. for 500 hours
# Text: as §1, §2
# (§4) ΔT (%)={(transmittance measured immediately after the optical film was prepared−transmittance re-measured after the optical film is exposed to each condition of light fastness, heat resistance, and moisture resistance)/transmittance measured immediately after the optical film is prepared}×100
# (§5) • ◯: ΔT 1.5% or less • Δ: ΔT more than 1.5% and 3% or less • X: ΔT more than 3%
# (§6) The light fastness, heat resistance and moisture resistance were evaluated as ◯, Δ, and X based on whether the ΔT was 1.5% or less, more than 1.5% and 3% or less, or more than 3%, respectively.
# [3] = Moisture resistance of adhesive film sample (change in transmittance ΔT); details: ΔT of transmittance for light of 390 to 450 nm, 60° C., 90% RH for 500 hours
# Text: as §1, §2, §4, §5, §6
# [4] = Solubility of compound in methyl ethyl ketone (MEK); details: solubility to 10 g of methyl ethyl ketone; 1 atm and room temperature
# Experimental: as §2
# • ◯: 0.3 wt. % or more • Δ: more than 0.1 wt. % and less than 0.3 wt. % • X: 0.1 wt. % or less
# [5] = Light fastness of adhesive film sample (change in transmittance ΔT); details: ΔT of transmittance for light of 390 to 450 nm; adhesive film sample with 0.29 part by weight compound; 55,600 lx*48 hours
# Text: as §1, §2, §4, §5, §6
# [6] = Maximum absorption wavelength of the adhesive film (thin film), UV-vis; details: adhesive film 22 μm to 23 μm; UV-vis apparatus (Shimazu UV-3600)
# Text: as §1, §2, §3
# [7] = Wavelength compatibility (transmittance of sample in region with 450 nm or more); details: for Wavelength compatibility: transmittance of adhesive film sample in region with wavelength of 450 nm or more; for wavelength compatibility (in words): verbal assessment
# Experimental: as §2
# • ◯: transmittance of 90% or more in region with 450 nm or more • Δ: transmittance of 80% or more in region with 450 nm or more • X: transmittance of 80% or less in region with 450 nm or more
# The wavelength compatibility was evaluated as ◯, Δ, and X based on whether the transmittance in a region with 450 nm or more was 90% or more, 80% or more, or 80% or less, respectively.
# [8] = Solution-phase UV-Vis spectrum (FIG. 2), wavelength distribution; details: P3 compared with Comparative Compound Z2
# Text: FIG. 2 illustrates the solution-phase UV-Vis spectra of Compound P3 according to an exemplary embodiment of the present disclosure and Comparative Compound Z2 used in Comparative Example 2.
# Since the compound according to an exemplary embodiment of the present disclosure may improve the light blocking efficiency or reduce the reflectance to external light by strongly absorbing light, the compound is excellent in wavelength compatibility in being included in an optical film. The wavelength compatibility can be confirmed by the wavelength distribution and the optimization appearing in the UV-Vis spectrum. For example, FIG. 2 illustrates the solution-phase UV-Vis spectra of Compound P3 according to an exemplary embodiment of the present disclosure and Comparative Compound Z2 used in Comparative Example 2. In FIG. 2, the dotted line is the solution-phase UV-Vis spectrum for Comparative Compound Z2, and the solid line is the solution-phase UV-Vis spectrum for Compound P3 according to an exemplary embodiment of the present disclosure.
structure (smiles),measurement,setting,value
Cc1ccccc1-n1nc(C(C)C)c(C=C2C(=O)N(C3CCCCC3)C(=O)N(C3CCCCC3)C2=O)c1O [Compound P9],λmax (nm) (Solution),[1],403 nm
same,Heat resistance,[2],∘
same,Moisture resistance,[3],∘
same,MEK solubility,[4],∘
same,Light fastness,[5],∘
same,λmax (nm) (Thin film),[6],399 nm
same,Wavelength compatibility,[7],∘
Cc1nn(-c2ccccc2)c(O)c1C=C1C(=O)N(C2CCCCC2)C(=O)N(C2CCCCC2)C1=O [Compound P1],λmax (nm) (Solution),[1],411 nm
same,Heat resistance,[2],Δ (ΔT more than 1.5% and 3% or less)
same,Moisture resistance,[3],∘
same,MEK solubility,[4],Δ (more than 0.1 wt. % and less than 0.3 wt. %)
same,Light fastness,[5],Δ (ΔT more than 1.5% and 3% or less)
same,λmax (nm) (Thin film),[6],407 nm
same,Wavelength compatibility,[7],∘
Cc1ccccc1-n1nc(-c2ccccc2)c(C=C2C(=O)N(C3CCCCC3)C(=O)N(C3CCCCC3)C2=O)c1O [Compound P6],λmax (nm) (Solution),[1],400 nm
same,Heat resistance,[2],Δ (ΔT more than 1.5% and 3% or less)
same,Moisture resistance,[3],∘
same,MEK solubility,[4],Δ (more than 0.1 wt. % and less than 0.3 wt. %)
same,Light fastness,[5],∘
same,λmax (nm) (Thin film),[6],400 nm
same,Wavelength compatibility,[7],∘
Cc1ccccc1-n1nc(C)c(C=C2C(=O)N(C3CCCCC3)C(=O)N(C3CCCCC3)C2=O)c1O [Compound P3],λmax (nm) (Solution),[1],404 nm
same,Heat resistance,[2],∘
same,wavelength distribution in solution-phase UV-Vis spectrum,[8],narrower wavelength distribution than Comparative Compound Z2; also recorded: wavelength distribution narrower and more optimized than Comparative Compound Z2
same,Moisture resistance,[3],∘
same,MEK solubility,[4],∘
same,Light fastness,[5],∘
same,λmax (nm) (Thin film),[6],400 nm
same,Wavelength compatibility,[7],∘
same,wavelength compatibility (in words),[7],excellent wavelength compatibility
CC(C)c1nn(-c2ccccc2)c(O)c1C=C1C(=O)N(C2CCCCC2)C(=O)N(C2CCCCC2)C1=O [Compound P8],λmax (nm) (Solution),[1],406 nm
same,Heat resistance,[2],Δ (ΔT more than 1.5% and 3% or less)
same,Moisture resistance,[3],∘
same,MEK solubility,[4],Δ (more than 0.1 wt. % and less than 0.3 wt. %)
same,Light fastness,[5],∘
same,λmax (nm) (Thin film),[6],408 nm
same,Wavelength compatibility,[7],∘
Cc1ccc(-n2nc(C)c(C=C3C(=O)N(C4CCCCC4)C(=O)N(C4CCCCC4)C3=O)c2O)c(C)c1 [Compound P4],λmax (nm) (Solution),[1],403 nm
same,Heat resistance,[2],∘
same,Moisture resistance,[3],∘
same,MEK solubility,[4],∘
same,Light fastness,[5],∘
same,λmax (nm) (Thin film),[6],399 nm
same,Wavelength compatibility,[7],∘
O=C1C(=Cc2c(-c3ccccc3)nn(-c3ccccc3)c2O)C(=O)N(C2CCCCC2)C(=O)N1C1CCCCC1 [Compound P5],λmax (nm) (Solution),[1],407 nm
same,Heat resistance,[2],∘
same,Moisture resistance,[3],∘
same,MEK solubility,[4],Δ (more than 0.1 wt. % and less than 0.3 wt. %)
same,Light fastness,[5],Δ (ΔT more than 1.5% and 3% or less)
same,λmax (nm) (Thin film),[6],406 nm
same,Wavelength compatibility,[7],∘
Cc1ccc(-n2nc(-c3ccccc3)c(C=C3C(=O)N(C4CCCCC4)C(=O)N(C4CCCCC4)C3=O)c2O)c(C)c1 [Compound P7],λmax (nm) (Solution),[1],399 nm
same,Heat resistance,[2],∘
same,Moisture resistance,[3],∘
same,MEK solubility,[4],∘
same,Light fastness,[5],∘
same,λmax (nm) (Thin film),[6],399 nm
same,Wavelength compatibility,[7],∘
"Cc1nn(-c2ccccc2)c(O)c1C=C1C(=O)NC(=O)NC1=O [Comparative Compound Z1, reference compound]",λmax (nm) (Solution),[1],412 nm
same,Moisture resistance,[3],Δ (ΔT more than 1.5% and 3% or less)
same,λmax (nm) (Thin film),[6],425 nm
same,Wavelength compatibility,[7],Δ (transmittance of 80% or more in region with 450 nm or more)
"CC1=NN(c2ccccc2)C(=O)/C1=C\c1c(C)nn(-c2ccccc2)c1O [Comparative Compound Z2, reference compound]",λmax (nm) (Solution),[1],405 nm
same,Heat resistance,[2],∘
same,Moisture resistance,[3],∘
same,MEK solubility,[4],∘
same,Light fastness,[5],∘
same,λmax (nm) (Thin film),[6],403 nm
same,wavelength compatibility (in words),[7],remarkably deteriorates compared to Examples 1 to 10
Cc1ccccc1-n1nc(C(C)C)c(C=C2C(=O)N(c3ccccc3)C(=O)N(c3ccccc3)C2=O)c1O [Compound P15],λmax (nm) (Solution),[1],402 nm
same,Heat resistance,[2],∘
same,Moisture resistance,[3],∘
same,MEK solubility,[4],Δ (more than 0.1 wt. % and less than 0.3 wt. %)
same,Light fastness,[5],∘
same,λmax (nm) (Thin film),[6],398 nm
same,Wavelength compatibility,[7],∘
Cc1ccc(-n2nc(C(C)C)c(C=C3C(=O)N(C4CCCCC4)C(=O)N(C4CCCCC4)C3=O)c2O)c(C)c1 [Compound P10],λmax (nm) (Solution),[1],403 nm
same,Heat resistance,[2],∘
same,Moisture resistance,[3],∘
same,MEK solubility,[4],∘
same,Light fastness,[5],∘
same,λmax (nm) (Thin film),[6],398 nm
same,Wavelength compatibility,[7],∘
